# Target: T1, human Cereblon WT GST-tagged protein (Homo sapiens, UniProt Q96SW2)
# T1 construct: purchased CISBIO 64BDCRBNPEH
# Experiment: CRBN binding, HTRF CEREBLON BINDING kit
# Settings: CRBN binding, HTRF CEREBLON BINDING kit
# Description: The CEREBLON BINDING kits (specification: 10,000 tests; product number: Catalog #64BDCRBNPEH; CISBIO company) was used to determine the CRBN binding ability of the compounds to be tested through a HTRF method (homogeneous time-resolved fluorescence). The specific methods are as follows: • 1. […] Then, 2.5 μL of human Cereblon WT GST-tagged protein solution was added to each well. Finally, 5 μL of the thoroughly mixed Thalidomide-Re reagent and GST Eu antibody working solution were added to each of the aforementioned wells. […] The blank control wells were sequentially added with 2.5 μL of diluent #9 (1×) solution, 2.5 μL of binding buffer, and 5 μL of thoroughly mixed Thalidomide-Re reagent and GST Eu antibody working solution. • 4. After sealing and incubating the solutions in the aforementioned wells at room temperature for 3 hours, the absorbance values at emission wavelengths of 620 nm and 665 nm were detected by the HTRF method using a Spark microplate reader (V3.1 SP1).
# The corresponding CRBN binding inhibition rate was calculated using the following method:
# [formula] [formula] [formula] • Note: OD 665 nmcompound is the absorbance value of each well of the compounds to be tested of the present disclosure at an emission wavelength of 665 nm. • OD 620 nmcompound is the absorbance value of each well of the compounds to be tested of the present disclosure at an emission wavelength of 620 nm. • OD 665 nmcontrol is the absorbance value of the blank control well at an emission wavelength of 665 nm. • OD 620 nmcontrol is the absorbance value of the blank control well at an emission wavelength of 620 nm. • OD 665 nmStd0 is the absorbance value of the solvent control well at an emission wavelength of 665 nm. • OD 620 nmStd0 is the absorbance value of the solvent control well at an emission wavelength of 620 nm.
# T1 sequence (Q96SW2 whole entry): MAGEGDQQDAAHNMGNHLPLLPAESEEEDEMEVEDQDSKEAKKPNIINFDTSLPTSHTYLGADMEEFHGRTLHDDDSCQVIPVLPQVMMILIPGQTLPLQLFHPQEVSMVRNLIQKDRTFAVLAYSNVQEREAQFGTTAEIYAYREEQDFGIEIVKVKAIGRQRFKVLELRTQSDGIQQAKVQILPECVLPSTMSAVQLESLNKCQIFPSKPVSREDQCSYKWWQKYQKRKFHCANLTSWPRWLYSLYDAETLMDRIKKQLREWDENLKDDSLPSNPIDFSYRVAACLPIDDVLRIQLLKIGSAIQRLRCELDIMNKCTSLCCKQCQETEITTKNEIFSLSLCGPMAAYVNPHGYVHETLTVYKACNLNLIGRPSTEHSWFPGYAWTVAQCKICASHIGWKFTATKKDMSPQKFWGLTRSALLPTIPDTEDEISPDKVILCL
row,SMILES,IC50 [µM]
1,"O=C1CCN(c2cccc(CN3CCC(N4CCN(c5ccc6c(c5)nc(NC(=O)c5cccc(C(F)(F)F)c5)n6[C@H]5CC[C@@H](CO)CC5)CC4)CC3)c2)C(=O)N1 [GT-05022, N-(5-(4-(1-(3-(2,4-dioxotetrahydropyrimidin-1(2H)-yl)benzyl)piperidin-4-yl)piperazin-1-yl)-1-((1s,4s)-4-(hydroxymethyl)cyclohexyl)-1H-benzo[d]imidazol-2-yl)-3-(trifluoromethyl)benzamide]",1 to 1.9
2,"O=C1CCN(c2ccc(CN3CCC(N4CCN(c5ccc6c(c5)nc(NC(=O)c5cccc(C(F)(F)F)c5)n6[C@H]5CC[C@@H](CO)CC5)CC4)CC3)nc2)C(=O)N1 [GT-05024, N-(5-(4-(1-((5-(2,4-dioxotetrahydropyrimidin-1(2H)-yl)pyridin-2-yl)methyl)piperidin-4-yl)piperazin-1-yl)-1-((1s,4s)-4-(hydroxymethyl)cyclohexyl)-1H-benzo[d]imidazol-2-yl)-3-(trifluoromethyl)benzamide]",1 to 1.9
3,"O=C1CCN(c2ccc(CN3CCC(n4cc(NC(=O)c5cnn6ccc(N7C[C@H]8C[C@@H]7CO8)nc56)c(C(F)F)n4)CC3)cc2)C(=O)N1 [GT-05029, 5-((1R,4R)-2-oxa-5-azabicyclo[2.2.1]heptan-5-yl)-N-(3-(difluoromethyl)-1-(1-(4-(2,4-dioxotetrahydropyrimidin-1(2H)-yl)benzyl)piperidin-4-yl)-1H-pyrazol-4-yl)pyrazolo[1,5-a]pyrimidine-3-carboxamide]",0.5 to 1
4,"O=C1CCC(c2ccc(CN3CCC(n4cc(NC(=O)c5cnn6ccc(N7C[C@H]8C[C@@H]7CO8)nc56)c(C(F)F)n4)CC3)cc2)C(=O)N1 (stereo partly drawn) [GT-05050, 5-((1R,4R)-2-oxa-5-azabicyclo[2.2.1]heptan-5-yl)-N-(3-(difluoromethyl)-1-(1-(4-(2,6-dioxopiperidin-3-yl)benzyl)piperidin-4-yl)-1H-pyrazol-4-yl)pyrazolo[1,5-a]pyrimidine-3-carboxamide]",< 0.5
5,"O=C1CCN(c2cccc(CN3CCC(n4cc(NC(=O)c5cnn6ccc(N7C[C@H]8C[C@@H]7CO8)nc56)c(C(F)F)n4)CC3)c2)C(=O)N1 [GT-05051, 5-((1R,4R)-2-oxa-5-azabicyclo[2.2.1]heptan-5-yl)-N-(3-(difluoromethyl)-1-(1-(3-(2,4-dioxotetrahydropyrimidin-1(2H)-yl)benzyl)piperidin-4-yl)-1H-pyrazol-4-yl)pyrazolo[1,5-a]pyrimidine-3-carboxamide]",0.5 to 1
6,"O=C1CCC(Nc2cccc(CN3CCC(n4cc(NC(=O)c5cnn6ccc(N7C[C@H]8C[C@@H]7CO8)nc56)c(C(F)F)n4)CC3)c2)C(=O)N1 (stereo partly drawn) [GT-05052, 5-((1R,4R)-2-oxa-5-azabicyclo[2.2.1]heptan-5-yl)-N-(3-(difluoromethyl)-1-(1-(3-((2,6-dioxopiperidin-3-yl)amino)benzyl)piperidin-4-yl)-1H-pyrazol-4-yl)pyrazolo[1,5-a]pyrimidine-3-carboxamide]",1 to 1.9
7,"O=C1CCN(c2ccc(CN3CCC(n4cc(NC(=O)c5cnn6ccc(N7C[C@H]8C[C@@H]7CO8)nc56)c(C(F)F)n4)CC3)nc2)C(=O)N1 [GT-05053, 5-((1R,4R)-2-oxa-5-azabicyclo[2.2.1]heptan-5-yl)-N-(3-(difluoromethyl)-1-(1-((5-(2,4-dioxotetrahydropyrimidin-1(2H)-yl)pyridin-2-yl)methyl)piperidin-4-yl)-1H-pyrazol-4-yl)pyrazolo[1,5-a]pyrimidine-3-carboxamide]",0.5 to 1
8,"Nc1nnc(-c2cc(F)ccc2O)cc1N1CCN(Cc2ccc(C3CCC(=O)NC3=O)cc2)CC1 (stereo not drawn) [GT-05062, 3-(4-((4-(3-amino-6-(5-fluoro-2-hydroxyphenyl)pyridazin-4-yl)piperazin-1-yl)methyl)phenyl)piperidine-2,6-dione]",0.5 to 1
9,"O=C1CCC(c2ccc(CN3C[C@@H]4C[C@H]3CN4c3ccc(-c4cc(F)c5c(c4)C(=O)N(C(C(=O)Nc4nccs4)c4ncn6c4CCC6)C5)cc3)cc2)C(=O)N1 (stereo partly drawn) [GT-05115, 2-(6,7-dihydro-5H-pyrrolo[1,2-c]imidazol-1-yl)-2-(6-(4-((1S,4S)-5-(4-(2,6-dioxopiperidin-3-yl)benzyl)-2,5-diazabicyclo[2.2.1]heptan-2-yl)phenyl)-4-fluoro-1-oxoisoindolin-2-yl)-N-(thiazol-2-yl)acetamide]",0.5 to 1
10,"O=C1CCN(c2ccc(CN3C[C@@H]4C[C@H]3CN4c3ccc(-c4cc(F)c5c(c4)C(=O)N(C(C(=O)Nc4nccs4)c4ncn6c4CCC6)C5)cc3)cc2)C(=O)N1 (stereo partly drawn) [GT-05116, 2-(6,7-dihydro-5H-pyrrolo[1,2-c]imidazol-1-yl)-2-(6-(4-((1S,4S)-5-(4-(2,4-dioxotetrahydropyrimidin-1(2H)-yl)benzyl)-2,5-diazabicyclo[2.2.1]heptan-2-yl)phenyl)-4-fluoro-1-oxoisoindolin-2-yl)-N-(thiazol-2-yl)acetamide]",0.5 to 1
11,"O=C1CCN(c2cccc(CN3C[C@@H]4C[C@H]3CN4c3ccc(-c4cc(F)c5c(c4)C(=O)N(C(C(=O)Nc4nccs4)c4ncn6c4CCC6)C5)cc3)c2)C(=O)N1 (stereo partly drawn) [GT-05117, 2-(6,7-dihydro-5H-pyrrolo[1,2-c]imidazol-1-yl)-2-(6-(4-((1S,4S)-5-(3-(2,4-dioxotetrahydropyrimidin-1(2H)-yl)benzyl)-2,5-diazabicyclo[2.2.1]heptan-2-yl)phenyl)-4-fluoro-1-oxoisoindolin-2-yl)-N-(thiazol-2-yl)acetamide]",0.5 to 1
12,"O=C1CCC(Nc2cccc(CN3C[C@@H]4C[C@H]3CN4c3ccc(-c4cc(F)c5c(c4)C(=O)N(C(C(=O)Nc4nccs4)c4ncn6c4CCC6)C5)cc3)c2)C(=O)N1 (stereo partly drawn) [GT-05118, 2-(6,7-dihydro-5H-pyrrolo[1,2-c]imidazol-1-yl)-2-(6-(4-((1S,4S)-5-(3-((2,6-dioxopiperidin-3-yl)amino)benzyl)-2,5-diazabicyclo[2.2.1]heptan-2-yl)phenyl)-4-fluoro-1-oxoisoindolin-2-yl)-N-(thiazol-2-yl)acetamide]",0.5 to 1
13,"O=C1CCN(c2ccc(CN3C[C@@H]4C[C@H]3CN4c3ccc(-c4cc(F)c5c(c4)C(=O)N(C(C(=O)Nc4nccs4)c4ncn6c4CCC6)C5)cc3)nc2)C(=O)N1 (stereo partly drawn) [GT-05119, 2-(6,7-dihydro-5H-pyrrolo[1,2-c]imidazol-1-yl)-2-(6-(4-((1S,4S)-5-((5-(2,4-dioxotetrahydropyrimidin-1(2H)-yl)pyridin-2-yl)methyl)-2,5-diazabicyclo[2.2.1]heptan-2-yl)phenyl)-4-fluoro-1-oxoisoindolin-2-yl)-N-(thiazol-2-yl)acetamide]",0.5 to 1
14,"CN(Cc1ccc(C2CCC(=O)NC2=O)cc1)C1CCN(c2ccc(-c3cc(F)c4c(c3)C(=O)N(C(C(=O)Nc3nccs3)c3ncn5c3CCC5)C4)cc2)CC1 (stereo not drawn) [GT-05218, 2-(6,7-dihydro-5H-pyrrolo[1,2-c]imidazol-1-yl)-2-(6-(4-(4-((4-(2,6-dioxopiperidin-3-yl)benzyl)(methyl)amino)piperidin-1-yl)phenyl)-4-fluoro-1-oxoisoindolin-2-yl)-N-(thiazol-2-yl)acetamide]",0.5 to 1
15,"CN(Cc1ccc(N2CCC(=O)NC2=O)cc1)C1CCN(c2ccc(-c3cc(F)c4c(c3)C(=O)N(C(C(=O)Nc3nccs3)c3ncn5c3CCC5)C4)cc2)CC1 (stereo not drawn) [GT-05219, 2-(6,7-dihydro-5H-pyrrolo[1,2-c]imidazol-1-yl)-2-(6-(4-(4-((4-(2,4-dioxotetrahydropyrimidin-1(2H)-yl)benzyl)(methyl)amino)piperidin-1-yl)phenyl)-4-fluoro-1-oxoisoindolin-2-yl)-N-(thiazol-2-yl)acetamide]",< 0.5
16,"CN(Cc1cccc(N2CCC(=O)NC2=O)c1)C1CCN(c2ccc(-c3cc(F)c4c(c3)C(=O)N(C(C(=O)Nc3nccs3)c3ncn5c3CCC5)C4)cc2)CC1 (stereo not drawn) [GT-05281, 2-(6,7-dihydro-5H-pyrrolo[1,2-c]imidazol-1-yl)-2-(6-(4-(4-((3-(2,4-dioxotetrahydropyrimidin-1(2H)-yl)benzyl)(methyl)amino)piperidin-1-yl)phenyl)-4-fluoro-1-oxoisoindolin-2-yl)-N-(thiazol-2-yl)acetamide]",< 0.5
17,"CN(Cc1ccc(N2CCC(=O)NC2=O)cn1)C1CCN(c2ccc(-c3cc(F)c4c(c3)C(=O)N(C(C(=O)Nc3nccs3)c3ncn5c3CCC5)C4)cc2)CC1 (stereo not drawn) [GT-05282, 2-(6,7-dihydro-5H-pyrrolo[1,2-c]imidazol-1-yl)-2-(6-(4-(4-(((5-(2,4-dioxotetrahydropyrimidin-1(2H)-yl)pyridin-2-yl)methyl)(methyl)amino)piperidin-1-yl)phenyl)-4-fluoro-1-oxoisoindolin-2-yl)-N-(thiazol-2-yl)acetamide]",0.5 to 1
18,"CN(Cc1ccc(N2CCC(=O)NC2=O)nc1)C1CCN(c2ccc(-c3cc(F)c4c(c3)C(=O)N(C(C(=O)Nc3nccs3)c3ncn5c3CCC5)C4)cc2)CC1 (stereo not drawn) [GT-05283, 2-(6,7-dihydro-5H-pyrrolo[1,2-c]imidazol-1-yl)-2-(6-(4-(4-(((6-(2,4-dioxotetrahydropyrimidin-1(2H)-yl)pyridin-3-yl)methyl)(methyl)amino)piperidin-1-yl)phenyl)-4-fluoro-1-oxoisoindolin-2-yl)-N-(thiazol-2-yl)acetamide]",1 to 1.9

# Reference: US20260274829A1, “NEW E3 UBIQUITIN LIGASE LIGAND, PROTEIN DEGRADATION AGENT AND USE THEREOF” (GLUETACS THERAPEUTICS (SHANGHAI) CO., LTD., priority 2023, published 2026)
